Here are results for eight substances from patent US20200102349A1, “PEPTIDE REAGENTS AND METHODS FOR DETECTION AND TARGETING OF DYSPLASIA, EARLY CANCER AND CANCER” (THE REGENTS OF THE UNIVERSITY OF MICHIGAN, priority 2014, published 2020).

pKd: −log10 of the molar value. Where no end group is shown, it is not given here. Some results are limits rather than exact numbers.

The subject of series [1] is tumor xenograft. To be noted: systemic administration; cited from earlier work.
The test system of series [2] is HT29 cells. As to the kind of experiment: Peptide binding to colorectal cancer cells on confocal microscopy (HT29). The series is classed as cell-based, human. To be noted: HT29, 5 μM, 3 min. The procedure:
(§1) HT29, SW480, and SW620 cells (˜10^3) were grown on cover slips to ˜80% confluence. The cells were washed 1× with PBS and incubated with 5 μM of QRH*-Cy5.5 and PEH*-Cy5.5 for 3 min at RT. The cells were then washed 3× in PBS, fixed with 4% paraformaldehyde (PFA) for 5 min, washed 1× with PBS, and then mounted on glass slides with ProLong Gold reagent containing DAPI (Invitrogen). Confocal fluorescence images were collected with FITC, Cy5.5, and DAPI filters (Leica Inverted SPSX Confocal Microscope System) using a 63× oil-immersion objective. Fluorescence intensities from 5 cells in 2 independent images were quantified using custom Matlab (Mathworks) software.
(§2) We assessed binding of QRH*-Cy5.5 to a panel of colorectal cancer cells that vary in EGFR expression level on confocal microscopy. We observed binding of QRH*-Cy5.5 to the surface (arrows) of HT29, SW480, and SW620 cells with decreasing strength, FIG. 3A-C, scale bars 30 μm. […] Results are an average of 10 cells from 2 independent images. EGFR expression is shown on Western blot, FIG. 3H.

Series [3] concerns SW480 cells. As to the kind of experiment: Peptide binding to colorectal cancer cells on confocal microscopy (SW480). Type of series: cell-based, human. To be noted: SW480, 5 μM, 3 min. The protocol:
as §1, §2

The subject of series [4] is SW620 cells. As to the kind of experiment: Peptide binding to colorectal cancer cells on confocal microscopy (SW620). Type of series: cell-based, human. To be noted: SW620, 5 μM, 3 min. The procedure:
as §1, §2

Series [5] relates to colonic dysplasia (flat lesions and polyps). As to the kind of experiment: In vivo NIR fluorescence endoscopy of colon in CPC;Apc mouse. To be noted: for mean (±SD) log of the T/B ratio: topical 100 μM, 5 min incubation. The procedure:
For the in vivo fluorescence images of mouse colon, the T/B ratios for flat dysplasia and polyps were log-transformed to improve normality. The fold-change between classification pairs was estimated using the anti-log of the difference in the log-transformed data. Differences in results between the experimental and control peptides were evaluated on t-test. *P<0.05 was considered significant. Similar methods were used to evaluate the ex vivo fluorescence images of human colonic specimens. The results were plotted on a receiver-operator characteristic (ROC) curve. Co-localization of peptide and antibody binding was evaluated on Pearson's correlation coefficient. All analyses were performed using custom Matlab software (MathWorks Inc).
Mouse imaging studies were performed with approval of the University of Michigan Committee on the Use and Care of Animals (UCUCA). The mice were housed in pathogen-free conditions and supplied water ad libitum under controlled conditions of humidity (50±10%), light (12/12 hour light/dark cycle) and temperature (25° C.). Anesthesia was induced and maintained via a nose cone with inhaled isoflurane mixed with oxygen at a concentration of 2-4% at a flow rate of ˜0.5 L/min. The colon was first rinsed with tap water to remove mucous and debris. White light illumination was used first to identify anatomic landmarks, including polyps, mucosal folds, colonic segment, and distance of endoscope tip from anus, to register images with histology. The Cy5.5-labeled peptides were delivered at a concentration of 100 μM in a volume of 1.5 mL through the 3 Fr instrument channel. After 5 min for incubation, the colon was rinsed 3× with a tap water to remove the unbound peptides. After imaging was completed, the mice were euthanized. The colon was resected, and divided along the longitudinal axis. Flat lesions and polyps were identified on fluorescence, excised perpendicular to the mucosal surface, and processed for histology (H&E). We collected images from mice (n=5) that ranged in age from 7 to 10 months.
Imaging was performed using a small animal endoscope (Karl Storz Veterinary Endoscopy).^39 A xenon light source provides white light illumination via a fluid light cable. A diode-pumped solid state laser (TechnicaLaser Inc) provides excitation at λex=671 nm. The laser beam is expanded to a diameter of 3 mm to fill the aperture of the light cable. The laser power at the tip of the endoscope is <2 mW. The white light images reflect off a dichroic mirror (Semrock Inc, # FF685-Di02-25×36, λc=685 nm), and are focused by an achromatic doublet (Edmund Optics Inc, #32-323). They pass through a neutral density filter (OD 1), and are detected by a color camera (Point Grey Research, # GX-FW-28S5C-C). The fluorescence images pass through the dichroic and a band pass filter (Semrock Inc, # FF01-716/40-25, λC=716 nm, Δλ=40 nm), and are focused on a monochrome camera (Point Grey Research, # GX-FW-28S5M-C). All videos (1932×1452 resolution) are recorded at 15 frames per sec via a firewire connection.
White light and fluorescence videos were exported in avi format with 24 (RGB) and 8 (grayscale) bit digital resolution for the color and fluorescence images, respectively. […] Individual frames were exported using custom Matlab software. On the fluorescence images, 3 regions of interest (ROI, 25×25 pixels) were picked at random within the dysplastic lesion and within adjacent areas of normal-appearing mucosa. The mean intensities within these ROI's on the fluorescence images were measured. The target to-background (T/B) ratio for each image was determined by ratioing the mean intensities of these two ROIs.

Series [6] addresses T1, EGFR (Homo sapiens, UniProt P00533). As to the kind of experiment: siRNA knockdown of EGFR in HT29 cells, confocal fluorescence microscopy. Type of series: cell-based. On the set-up: endogenous in cells; host or cells: HT29 human colorectal adenocarcinoma cells (ATCC). The procedure: as §1
We used siRNA to knockdown expression of EGFR in HT29 cells. We used ON-TARGETplus human EGFR siRNA and ON-TARGETplus non-targeting pool (Thermo Scientific) per manufacturer's protocol. 5 μL of siRNA at 5 μM/L concentration was transfected into HT29 cells using DharmaFECT (Thermo Scientific). QRH*-Cy5.5 and PEH*-Cy5.5 were incubated with HT29 siEGFR and siCL cells. The cells were fixed with either 4% PFA or methanol. A 1:1000 dilution of primary monoclonal mouse anti-EGFR antibody (Thermo Scientific, # MS-396, clone 199.12, IgG2a isotype) was incubated overnight at 4° C. Afterwards, the cells were washed 3× with PBS, and further incubated with 1:500 dilution of AF488-labeled secondary goat anti-mouse IgG antibody (Life Technologies, # A-11029) for 1 hour at RT, washed 3×, and then mounted on glass slides with ProLong Gold reagent containing DAPI (Invitrogen). Confocal fluorescence images were collected with FITC, Cy5.5, and DAPI filters using a 63× oil-immersion objective.
We validated specific binding of QRH*-Cy5.5 to EGFR on siRNA knockdown in HT29 cells. On confocal microscopy, QRH*-Cy5.5 (red), FIG. 2A, and AF488-labeled anti-EGFR (green), FIG. 2B, bind strongly to the surface (arrows) of control HT29 cells (transfected with siCL, non-targeting siRNA), scale bars 30 μm. […] The results (mean±std) for QRH*-Cy5.5, anti-EGFR AF488, and PEH*-Cy5.5 to control cells (siCL) were 7.8±1.7, 3.1±1.0, and 1.6±0.3 AU, respectively, and to EGFR knockdown cells (siEGFR) were 2.5±0.8, 1.0±0.4, and 1.9±0.7 AU, respectively, *P<0.01 by paired t-test, FIG. 2G. Results are an average of 10 cells from 2 images performed independently. EGFR expression is shown on Western blot, FIG. 12H.

The test system of series [7] is HT29 cells. As to the kind of experiment: Competition for peptide binding with unlabeled peptide. The series is classed as cell-based, human. To be noted: unlabeled peptide 0-500 μM, then 5 μM QRH*-Cy5.5, 4° C. The procedure:
Specific binding of QRH*-Cy5.5 to HT29 cells was validated on competitive inhibition with unlabeled QRH* peptide. A total of −10^3 HT29 cells were grown to −70% confluence on cover slips in triplicate. Unlabeled QRH* and PEH* peptide at 0, 50, 100, 150, 250, and 500 μM were added and incubated with the cells for 30 min at 4° C. The cells were washed and incubated with 5 μM of QRH*-Cy5.5 for another 30 min at 4° C. The cells were washed and fixed with 4% PFA for 5 min. The cells were washed with PBS and mounted with ProLong Gold reagent containing DAPI (Invitrogen). Fluorescence images were collected at each concentration using a 63× objective (Zeiss Axioskop 2 plus microscope), and intensities from 5 cells in 2 independent images were quantified using custom Matlab (Mathworks) software.

Series [8] concerns HT29 cells. As to the kind of experiment: Apparent dissociation constant on flow cytometry. The series is classed as binding, human. To be noted: 4° C., 1 hour. The procedure:
We measured the apparent dissociation constant of the peptide to HT29 cells as an assessment of binding affinity. QRH*-Cy5.5 was serially diluted in PBS at concentrations of 0, 10, 25, 50, 75, 100, 125, 150 and 200 nM. HT29 cells (˜10^5) were incubated with QRH*-Cy5.5 at 4° C. for 1 hour, washed with cold PBS, and the mean fluorescence intensities were measured on flow cytometry. The equilibrium dissociation constant kd=1/ka was calculated by performing a least squares fit of the data to the non-linear equation […]. I0 and Imax are the initial and maximum fluorescence intensities, corresponding to no peptide and at saturation, respectively, and [X] represents the concentration of the bound peptide [Thomas et al., Clin Exp Metastasis, 26:105-119 (2009)]. Origin 6.1 data analysis software (OriginLab Corp) was used to calculate kd.
In general terms: Flow cytometry measures light scatter and fluorescence of single cells or particles in a stream.

In series [9] the test system is HT29 cells. As to the kind of experiment: Apparent association time constant on flow cytometry. Type of series: binding, human. The procedure:
We measured the apparent association time constant of the peptide to HT29 cells as an assessment of binding onset. HT29 cells were grown to […] confluence in 10 cm dishes, and detached with PBS-based cell dissociation buffer (Invitrogen). Cells (˜10^5) were incubated with 5 μM QRH*-Cy5.5 at 4° C. for various time intervals ranging from 0 to 20 min. The cells were centrifuged, washed with cold PBS, and fixed with 4% PFA. Flow cytometry analysis was performed as described above, and the median fluorescence intensity (y) was ratioed with that of HT29 cells without addition of peptide at different time points (t) using Flowjo software. The rate constant k was calculated by fitting the data to a first order kinetics model, y(t)=Imax[1−exp^(−kt)], where Imax=maximum value,^60 using Prism 5.0 software (GraphPad Inc).

In series [10] the test system is OE21 human esophageal SCC cells. As to the kind of experiment: Binding of FITC-labeled peptide to esophageal SCC cells on confocal microscopy. The series is classed as cell-based. The protocol: We have further validated specific binding of the FITC-labeled peptide to EGFR on co-localization with anti-EGFR antibody. A total of ˜7.5×10^3 OE21 cells were grown to ˜70% confluence on cover slips and fixed with methanol for 5 min at ˜20° C. The cells were incubated for 2 hours at RT with 1:500 dilution of primary anti-EGFR mAb (199.12, Neomarkers). The cells were incubated with 1:500 dilution of secondary Cy5.5-labeled antibody for 1 hour at RT, and mounted with ProLong Gold with DAPI (Invitrogen). On confocal microscopy, we observe specific binding of Cy5.5-labeled anti-EGFR antibody (red) to the membrane (arrow) of OE21 cells, FIG. 8A. We then added the FITC-labeled peptide to the OE21 cells. After 10 min for incubation at 37° C., co-localization of the peptide (green) with the antibody (red) to the membrane (arrow) of OE21 cells can be observed, FIG. 8B.

The target in series [11] is T1, EGFR. To be noted: read-out: binding affinity; cited from earlier work.

In the case of CMYIEALDKYAC, in [1], the “time of peak accumulation / binding activity in tumor xenograft after injection” value is 8 h.

As to LARLLT, in [1], the “time of peak accumulation / binding activity in tumor xenograft after injection” value was roughly 80 h.

With “PEH*-Cy5.5: scrambled sequence PEHKRRQ (SEQ ID NO: 19) for control, Cy5.5-labeled (also: Cy5.5 label, site not given here) [reference compound]”, the “fluorescence intensity of binding (mean±std)” value in series [2] amounted to 1.7±0.4; in series [3], 1.2±0.3; in series [4] it was 0.8±0.3. Also, the “mean (±SD) log of the T/B ratio” value came out at 0.108±0.143 in series [5] (flat lesions (n=15)) and 0.186±0.233 in [5] (polyps (n=15)). The “NIR fluorescence signal from polyp and flat lesions in vivo” value in series [5] (topical, distal colon, 5 min) is listed as “minimal signal”. Also, the “fluorescence intensity (mean±std)” value in [6] (EGFR knockdown HT29 cells (siEGFR)) turned out to be 1.9±0.7 AU; in [6] (control HT29 cells (siCL, non-targeting siRNA)), 1.6±0.3 AU.

For the substance “PEH*: unlabeled PEH* (control) (PEHKRRQGGGSK) [reference compound]”, the “change of fluorescence intensity of QRH*-Cy5.5 binding on addition of unlabeled peptide” value in series [7] is reported as “no change”.

Regarding “QRH*: unlabeled QRH* peptide (QRHKPREGGGSK)”, the “change of fluorescence intensity of QRH*-Cy5.5 binding on addition of unlabeled peptide” value in series [7] is “decrease in a concentration dependent manner”.

In the case of QRHKPRE, in series [8], the pKd is 7.30. Also, the “binding time scale (onset)” value in series [9] is reported as less than 2.5 min. The “apparent association time constant k” value in series [9] (5 μM, 4° C., flow cytometry) was 0.406 min⁻¹.

Regarding “SHR*-FITC: FITC labeled SHRNRPRNTQPS (SHR*) (SEQ ID NO: 21) peptide (also: FITC label, site not given here)”, in series [10], the “binding on confocal fluorescence microscopy” value is “significantly increased fluorescence intensity”. In series [10] (10 min, 37° C.), the “co-localization with Cy5.5-labeled anti-EGFR antibody” value is “co-localization”.

YHWYGYTPQNVI: the pKd in series [11] was 7.66. Also, the “time of peak accumulation / binding activity in tumor xenograft after injection” value in series [1] is 4 h.
